Patent US20250082625A1, “NOVEL THERAPY” (priority 2016, published 2025)
“Also recorded” adds a separate entry of the source.

Test system: Nlrp3^−/− mice infected with CY-17
Assay: Disease severity / bladder pathology in CY-17 infected Nlrp3^−/− mice (murine acute cystitis model)
Assay type: in vivo
Experimental: To inhibit the NK1R dependent response to infection, we used the NK1R antagonist SR 140333. FIG. 6a Experimental scheme of NK1R antagonist (SR140333) treatment. Susceptible Nlrp3^−/− mice were infected with CY-17 for 24 hours, and the neuropeptide response and disease severity was compared between untreated infected mice, treated and infected mice and sham treated uninfected mice. The mice were either pre-treated with SR140333 i.p. for 30 minutes prior to infection or treated i.p. 1 hour after infection. Sham treated mice received SR140333 i.p. and PBS intravesically. n=10 mice in each treatment group, n=6 in the sham treated, uninfected group. N=2 in the uninfected control group. Means+SEMs of 2 experiments, total number of mice=39. FIG. 6b Protection against gross bladder pathology in SR140333 treated mice compared untreated, infected mice, FIG. 6c Inhibition of NK1R staining in treated mice compared to infected mice not receiving SR140333. Sections were obtained from 4 mice per condition. FIG. 6d Inhibition of Nk1r expression, detected by qRT-PCR analysis of treated mice compared to untreated, infected mice. Sections were obtained from 5 mice per treatment group. FIG. 6e Attenuated SP staining in SR140333 treated infected mice compared to untreated mice (n=4 mice per condition). […] FIG. 6h Galr2 gene expression is not altered after treatment with SR140333. n=5 mice per treatment group (*=p<0.05, **=p<0.01, Mann-Whitney test). FIG. 6i Protection from bladder tissue pathology shown in H&E stained and neutrophil and bacterial immunostained sections from treated versus control mice. […] (n=10 mice per treatment group, n=4 mice per sham group, means+SEMs, *P<0.05, **P<0.01, ***P<0.001, one way Anova).
Susceptible Nlrp3^−/− mice were treated with SR140333 intra-peritoneally (1 mg/kg), one hour before infection (pretreatment) or 30 minutes after infection (post-treatment) with CY-17 (FIG. 6a). The severity of acute cystitis after 24 hours or seven days was examined and neuropeptide expression and disease severity quantified by immunohistochemistry and qRT-PCR of whole bladder RNA extracts, using primers specific for NK1R, Ppt-1 or Galr2 as described above.
Bladder tissue was more intact and the inflammatory cell infiltrate was reduced in tissues.

Compound: CC(C)Oc1cccc(CC(=O)N2CCC[C@](CC[N+]34CCC(c5ccccc5)(CC3)CC4)(c3ccc(Cl)c(Cl)c3)C2)c1.[Cl-] [SR140333, 1-[2-[(3S)-3-(3,4-Dichlorophenyl)-1-[2-[3-(1-methylethoxy)phenyl]acetyl]-3-piperidinyl]ethyl]-4-phenyl-1-azoniabicyclo[2.2.2]octane chloride]
- gross bladder pathology (edema, hyperemia and bladder enlargement) (24 hours post infection, vs infected mice without therapy): reduction; also recorded: Protection
- Histology score (after treatment with SR140333): reduced pathology
- inflammatory cell infiltrate in tissues (treated Nlrp3^−/− mice vs infected mice without therapy): reduced
- bladder tissue pathology / tissue integrity (H&E, neutrophil and bacterial immunostained sections) (treated versus control mice): more intact; also recorded: Protection
